Results taken from patent US7098340B2, “Benzyl sulfonamide derivatives” (Warner Lambert Company LLC, priority 2003, dated 2006).

Each compound was assayed against T1, androgen receptor (Homo sapiens, UniProt P10275) (assay: AR Antagonist Cell Assay (MMTV-luciferase reporter, DHT-stimulated)). Settings: MDA-MB453-MMTV clone 54-19 cells; antagonism of 100 pM DHT, 17 hr, luciferase readout.
T1 sequence (P10275 1-920 Q868H): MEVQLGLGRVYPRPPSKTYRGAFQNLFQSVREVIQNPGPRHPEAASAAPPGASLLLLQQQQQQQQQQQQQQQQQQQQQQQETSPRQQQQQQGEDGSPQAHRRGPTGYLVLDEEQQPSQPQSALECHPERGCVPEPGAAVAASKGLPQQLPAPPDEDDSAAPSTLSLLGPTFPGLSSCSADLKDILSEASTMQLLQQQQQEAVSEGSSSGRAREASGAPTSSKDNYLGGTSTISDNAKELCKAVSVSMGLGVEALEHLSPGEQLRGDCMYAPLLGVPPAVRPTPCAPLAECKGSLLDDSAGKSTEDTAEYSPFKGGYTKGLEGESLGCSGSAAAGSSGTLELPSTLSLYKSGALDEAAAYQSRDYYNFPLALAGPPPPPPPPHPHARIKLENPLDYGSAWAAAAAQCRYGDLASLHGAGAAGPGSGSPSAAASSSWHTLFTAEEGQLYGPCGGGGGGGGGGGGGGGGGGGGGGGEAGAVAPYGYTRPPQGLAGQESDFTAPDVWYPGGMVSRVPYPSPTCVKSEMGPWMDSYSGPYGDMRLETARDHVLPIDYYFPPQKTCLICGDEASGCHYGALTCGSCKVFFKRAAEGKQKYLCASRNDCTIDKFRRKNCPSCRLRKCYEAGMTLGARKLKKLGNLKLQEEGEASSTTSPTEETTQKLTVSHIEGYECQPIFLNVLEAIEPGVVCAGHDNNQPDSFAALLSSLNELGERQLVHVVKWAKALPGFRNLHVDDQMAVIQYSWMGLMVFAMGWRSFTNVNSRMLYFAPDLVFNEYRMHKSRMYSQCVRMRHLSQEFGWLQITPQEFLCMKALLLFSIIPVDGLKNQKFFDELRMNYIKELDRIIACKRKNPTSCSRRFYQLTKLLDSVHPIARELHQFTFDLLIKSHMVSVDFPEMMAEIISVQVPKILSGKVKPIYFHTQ
Format: cell-based
Protocol: The compounds ability to antagonize the effects of androgen on the androgen receptor were determined in the protocol described immediately below.
Experimental Procedure for AR Antagonist Cell Assay
Cell line: MDA-MB453-MMTV clone 54–19. This cell line is a stable transfected cell line with MDA-MB453 cell background (human breast tumor cell expressing high level of androgen receptor). A MMTV minimal promoter containing ARE was first cloned in front of a firefly luciferase reporter gene. Then the cascade was cloned into transfection vector pUV120puro. Electroporation method was used for transfecting MDA-MB-453 cell. Puromycin resistant stable cell line was selected.
Cell Culture Media and Reagents:
Culture medium: DMEM (high glucose, Gibco cat #: 11960-044), 10% FBS, and 1% L-glutamine
Plating medium: DMEM (phenol red free), 10% charcoal treated HyClone serum, 1% L-glutamine
Assay medium: DMEM (phenol red free), 1% charcoal treated HyClone serum, 1% L-glutamine, and 1% penicillin/streptomycin
3× luciferase buffer: 2% beta-mercaptoethanol, 0.6% ATP, 0.0135% luciferine in cell lysis buffer
• 1. Cells are maintained in culture medium, splitting cells when they reach 80–90% confluence • 2. To test compounds, 10,000 cells/well are plated to opaque 96 cell culture plate in 100 ul/well plating medium, culture for overnight at 37° C. in cell culture incubator • 3. Carefully remove plating medium, then add 80 ul/well of pre-warmed assay medium, add 10 ul/well testing compound (final concentration at 10 uM or 1 uM), incubate at 37° C. for 30 minutes • 4. Add 10 ul/well freshly prepared DHT (final concentration at 100 pM) to each well, incubate at 37° C. for 17 hr (overnight) • 5. Add 50 ul/well 3× luciferase buffer, incubate at room temperature for 5 minutes, then count on Luminometer.
The fold induction over background by 100 pM DHT in the absence of testing compounds is standardized as 100% and experimental result is expressed as percentage of inhibition by testing compounds.

Row | Structure (SMILES) | IC50
1 | O=c1cc(C(F)(F)F)c2cc(Cc3ccc(S(=O)(=O)Nc4ccc(F)cc4)cc3)ccc2o1 [Example 117, N-(4-Fluorophenyl)-4-(2-oxo-4-trifluoromethyl-2H-chromen-6-ylmethyl)benzenesulfonamide] | 3.46 µM
2 | CCCCN(C)S(=O)(=O)c1ccc(Cc2ccc3[nH]c(=O)cc(C(F)(F)F)c3c2)cc1 [Example 9B, N-Butyl-N-methyl-4-(2-oxo-4-trifluoromethyl-1,2-dihydroquinolin-6-ylmethyl)benzenesulfonamide] | > 10 µM
3 | O=c1cc(C(F)(F)F)c2cc(Cc3ccc(S(=O)(=O)Nc4ccccc4CO)cc3)ccc2o1 [Example 121, N-(2-Hydroxymethylphenyl)-4-(2-oxo-4-trifluoromethyl-2H-chromen-6-ylmethyl)-benzenesulfonamide] | 3.17 µM
4 | CCOC(=O)Cc1ccc(NS(=O)(=O)c2ccc(Cc3ccc4oc(=O)cc(C(F)(F)F)c4c3)cc2)cc1 [Example 148, {4-[4-(2-Oxo-4-trifluoromethyl-2H-chromen-6-ylmethyl)-benzenesulfonylamino]-phenyl}acetic acid ethyl ester] | 3.13 µM
5 | CCOC(=O)C(NS(=O)(=O)c1ccc(Cc2ccc3[nH]c(=O)cc(C(F)(F)F)c3c2)cc1)c1ccccc1 (stereo not shown) [Example 89, [4-(2-Oxo-4-trifluoromethyl-1,2-dihydroquinolin-6-ylmethyl)-benzenesulfonylamino]-phenylacetic acid ethyl ester] | > 10 µM
6 | N#Cc1cccc(NS(=O)(=O)c2ccc(Cc3ccc4[nH]c(=O)cc(C(F)(F)F)c4c3)cc2)c1 [Example 16, N-(3-Cyanophenyl)-4-(2-oxo-4-trifluoromethyl-1,2-dihydroquinolin-6-ylmethyl)-benzenesulfonamide] | 2.02 µM
7 | O=c1cc(C(F)(F)F)c2cc(Cc3ccc(S(=O)(=O)Nc4cccc(OC(F)F)c4)cc3)ccc2[nH]1 [Example 36, N-(3-Difluoromethoxyphenyl)-4-(2-oxo-4-trifluoromethyl-1,2-dihydroquinolin-6-ylmethyl)-benzenesulfonamide] | 6.14 µM
8 | O=c1cc(C(F)(F)F)c2cc(Cc3ccc(S(=O)(=O)Nc4cccc5ncccc45)cc3)ccc2[nH]1 [Example 29, 4-(2-Oxo-4-trifluoromethyl-1,2-dihydroquinolin-6-ylmethyl)-N-quinolin-5-ylbenzenesulfonamide] | > 10 µM
9 | O=c1cc(C(F)(F)F)c2cc(Cc3ccc(S(=O)(=O)NCc4ccccc4Sc4ccccc4CO)cc3)ccc2[nH]1 [Example 94, N-[2-(2-Hydroxymethyl-phenylsulfanyl)benzyl]-4-(2-oxo-4-trifluoromethyl-1,2-dihydroquinolin-6-ylmethyl)-benzenesulfonamide] | > 10 µM
10 | Cc1ccc(NS(=O)(=O)c2ccc(Cc3ccc4oc(=O)cc(C(F)(F)F)c4c3)cc2)cc1 [Example 116, 4-(2-Oxo-4-trifluoromethyl-2H-chromen-6-ylmethyl)-N-p-tolylbenzenesulfonamide] | 1.21 µM
11 | CCCN(CC1CC1)S(=O)(=O)c1ccc(Cc2ccc3oc(=O)cc(C(F)(F)F)c3c2)cc1 [Example 104, N-Cyclopropylmethyl-4-(2-oxo-4-trifluoromethyl-2H-chromen-6-ylmethyl)-N-propylbenzenesulfonamide] | 1.79 µM

Second part, the compound after the results:

Row | IC50 | Structure (SMILES)
12 | > 10 µM | O=c1cc(C(F)(F)F)c2cc(Cc3ccc(S(=O)(=O)N[C@H]4CCCC[C@H]4OCc4ccccc4)cc3)ccc2[nH]1 [Example 93, N-(2-Benzyloxycyclohexyl)-4-(2-oxo-4-trifluoromethyl-1,2-dihydroquinolin-6-ylmethyl)-benzenesulfonamide]
13 | 4.15 µM | CCCCN(CC)S(=O)(=O)c1ccc(Cc2ccc3oc(=O)cc(C(F)(F)F)c3c2)cc1 [Example 99, N-Butyl-N-ethyl-4-(2-oxo-4-trifluoromethyl-2H-chromen-6-ylmethyl)benzenesulfonamide]
14 | > 10 µM | O=c1cc(C(F)(F)F)c2cc(Cc3ccc(S(=O)(=O)NCc4cc(C(F)(F)F)ccc4F)cc3)ccc2o1 [Example 204, N-(2-Fluoro-5-trifluoromethylbenzyl)-4-(2-oxo-4-trifluoromethyl-2H-chromen-6-ylmethyl)benzene-sulfonamide]
15 | > 10 µM | O=c1cc(C(F)(F)F)c2cc(Cc3ccc(S(=O)(=O)NCc4cccc(Cl)c4)cc3)ccc2o1 [Example 186, N-(3-Chlorobenzyl)-4-(2-oxo-4-trifluoromethyl-2H-chromen-6-ylmethyl)benzenesulfonamide]
16 | ~10 µM | CCCCN(CCO)S(=O)(=O)c1ccc(Cc2ccc3oc(=O)cc(C(F)(F)F)c3c2)cc1 [Example 100, N-Butyl-N-(2-hydroxyethyl)-4-(2-oxo-4-trifluoromethyl-2H-chromen-6-ylmethyl)-benzenesulfonamide]
17 | 8.23 µM | Cc1ccc(F)cc1CNS(=O)(=O)c1ccc(Cc2ccc3[nH]c(=O)cc(C(F)(F)F)c3c2)cc1 [Example 67, N-(5-Fluoro-2-methylbenzyl)-4-(2-oxo-4-trifluoromethyl-1,2-dihydroquinolin-6-ylmethyl)-benzenesulfonamide]
18 | 1.89 µM | N#CCc1ccc(NS(=O)(=O)c2ccc(Cc3ccc4oc(=O)cc(C(F)(F)F)c4c3)cc2)cc1 [Example 126, N-(4-Cyanomethylphenyl)-4-(2-oxo-4-trifluoromethyl-2H-chromen-6-ylmethyl)-benzenesulfonamide]
19 | 6.97 µM | O=c1cc(C(F)(F)F)c2cc(Cc3ccc(S(=O)(=O)NC4CCCCCC4)cc3)ccc2o1 [Example 166, N-Cycloheptyl-4-(2-oxo-4-trifluoromethyl-2H-chromen-6-ylmethyl)benzenesulfonamide]
20 | > 10 µM | Cc1ccc(CNS(=O)(=O)c2ccc(Cc3ccc4[nH]c(=O)cc(C(F)(F)F)c4c3)cc2)o1 [Example 55, N-(5-Methylfuran-2-ylmethyl)-4-(2-oxo-4-trifluoromethyl-1,2-dihydroquinolin-6-ylmethyl)-benzenesulfonamide]
21 | 5.38 µM | CC(CNS(=O)(=O)c1ccc(Cc2ccc3[nH]c(=O)cc(C(F)(F)F)c3c2)cc1)c1ccccc1 (stereo not shown) [Example 65, 4-(2-Oxo-4-trifluoromethyl-1,2-dihydroquinolin-6-ylmethyl)-N-(2-phenylpropyl)-benzenesulfonamide]
22 | 6.5 µM | O=c1cc(C(F)(F)F)c2cc(Cc3ccc(S(=O)(=O)Nc4ccc(-n5ccc(C(F)(F)F)n5)cc4)cc3)ccc2o1 [Example 155, 4-(2-Oxo-4-trifluoromethyl-2H-chromen-6-ylmethyl)-N-[4-(3-trifluoromethylpyrazol-1-yl)phenyl]benzenesulfonamide]
23 | 1.03 µM | O=c1cc(C(F)(F)F)c2cc(Cc3ccc(S(=O)(=O)N(CCO)C4CCCCC4)cc3)ccc2o1 [Example 95, N-Cyclohexyl-N-(2-hydroxyethyl)-4-(2-oxo-4-trifluoromethyl-2H-chromen-6-ylmethyl)benzenesulfonamide]
24 | > 10 µM | O=c1cc(C(F)(F)F)c2cc(Cc3ccc(S(=O)(=O)N(CCO)C4CCCCC4)cc3)ccc2[nH]1 [Example 4, N-Cyclohexyl-N-(2-hydroxyethyl)-4-(2-oxo-4-trifluoromethyl-1,2-dihydroquinolin-6-ylmethyl)benzenesulfonamide]
25 | 9.16 µM | O=c1cc(C(F)(F)F)c2cc(Cc3ccc(S(=O)(=O)NCCCn4ccnc4)cc3)ccc2[nH]1 [Example 60, N-(3-Imidazol-1-ylpropyl)-4-(2-oxo-4-trifluoromethyl-1,2-dihydroquinolin-6-ylmethyl)-benzenesulfonamide]
